System: hemoglobin-haptoglobin complex
Assay: Stability of hemoglobin (as hemoglobin-haptoglobin complex) in samples preserved at 37° C. in preservation solution containing 1 unit/L haptoglobin, Hb measured by latex agglutination method (Examples 1 to 7)
Set-up: species or system human
Outline: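 Latex agglutination (anti-human hemoglobin rabbit polyclonal latex) measured Hb in samples stored at 37 °C up to 21 days; values expressed as % recovery versus day 0. Preservation solution: HEPES 40 mmol/L pH 6.8, BSA 0.1%, NaN3 0.1%, haptoglobin 1 unit/L, phenylboronic acid 0–100 mmol/L, optional sugars; ~300 µg/L Hb, 0.5% feces or none.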

[1] = Feces 1, phenylboronic acid 0.5 mmol/L, 37° C., 0 days
[2] = Feces 1, phenylboronic acid 0.5 mmol/L, 37° C., 7 days
[3] = Feces 1, phenylboronic acid 0.5 mmol/L, 37° C., 14 days
[4] = Feces 1, phenylboronic acid 0.5 mmol/L, 37° C., 21 days
[5] = Feces 1, phenylboronic acid 1 mmol/L, 37° C., 0 days
[6] = Feces 1, phenylboronic acid 1 mmol/L, 37° C., 14 days
[7] = Feces 1, phenylboronic acid 1 mmol/L, 37° C., 21 days
[8] = Feces 1, phenylboronic acid 15 mmol/L, 37° C., 0 days
[9] = Feces 1, phenylboronic acid 15 mmol/L, 37° C., 7 days
[10] = Feces 1, phenylboronic acid 15 mmol/L, 37° C., 14 days
[11] = Feces 1, phenylboronic acid 15 mmol/L, 37° C., 21 days
[12] = Feces 1, phenylboronic acid 50 mmol/L, 37° C., 0 days
[13] = Feces 1, phenylboronic acid 50 mmol/L, 37° C., 7 days
[14] = Feces 1, phenylboronic acid 50 mmol/L, 37° C., 14 days
[15] = Feces 1, phenylboronic acid 50 mmol/L, 37° C., 21 days
[16] = Feces 1, phenylboronic acid 100 mmol/L, 37° C., 0 days
[17] = Feces 1, phenylboronic acid 100 mmol/L, 37° C., 7 days
[18] = Feces 1, phenylboronic acid 100 mmol/L, 37° C., 14 days
[19] = Feces 1, phenylboronic acid 100 mmol/L, 37° C., 21 days
[20] = Feces 2, phenylboronic acid 0.5 mmol/L, 37° C., 0 days
[21] = Feces 2, phenylboronic acid 0.5 mmol/L, 37° C., 7 days
[22] = Feces 2, phenylboronic acid 0.5 mmol/L, 37° C., 14 days
[23] = Feces 2, phenylboronic acid 0.5 mmol/L, 37° C., 21 days
[24] = Feces 2, phenylboronic acid 1 mmol/L, 37° C., 7 days
[25] = Feces 2, phenylboronic acid 1 mmol/L, 37° C., 14 days
[26] = Feces 2, phenylboronic acid 1 mmol/L, 37° C., 21 days
[27] = Feces 2, phenylboronic acid 15 mmol/L, no sugar, 0 days at 37° C.
[28] = Feces 2, phenylboronic acid 15 mmol/L, no sugar, 7 days at 37° C.
[29] = Feces 2, phenylboronic acid 15 mmol/L, no sugar, 14 days at 37° C.
[30] = Feces 2, phenylboronic acid 15 mmol/L, no sugar, 21 days at 37° C.
[31] = Feces 2, phenylboronic acid 15 mmol/L, 37° C., 0 days
[32] = Feces 2, phenylboronic acid 15 mmol/L, 37° C., 7 days
[33] = Feces 2, phenylboronic acid 15 mmol/L, 37° C., 14 days
[34] = Feces 2, phenylboronic acid 15 mmol/L, 37° C., 21 days
[35] = Feces 2, phenylboronic acid 50 mmol/L, 37° C., 0 days
[36] = Feces 2, phenylboronic acid 50 mmol/L, 37° C., 7 days
[37] = Feces 2, phenylboronic acid 50 mmol/L, 37° C., 21 days
[38] = Feces 2, phenylboronic acid 100 mmol/L, 37° C., 0 days
[39] = Feces 2, phenylboronic acid 100 mmol/L, 37° C., 7 days
[40] = Feces 2, phenylboronic acid 100 mmol/L, 37° C., 14 days
[41] = Feces 2, phenylboronic acid 100 mmol/L, 37° C., 21 days

OB(O)c1ccccc1 [phenylboronic acid]
recovery ratio of hemoglobin in the samples (Feces 1, Feces 2, Feces 3, phenylboronic acid at 0.5 mmol/L or more): improved | Hb concentration [1]: 279 µg/L | Recovery ratio with respect to Hb concentration after 0 days [1]: 100% | Hb concentration [2]: 181 µg/L | Recovery ratio with respect to Hb concentration after 0 days [2]: 65% | Hb concentration [3]: 147 µg/L | Recovery ratio with respect to Hb concentration after 0 days [3]: 53% | Hb concentration [4]: 129 µg/L | Recovery ratio with respect to Hb concentration after 0 days [4]: 46% | Hb concentration [5]: 275 µg/L | Recovery ratio with respect to Hb concentration after 0 days [5]: 100% | Recovery ratio with respect to Hb concentration after 0 days (Feces 1, phenylboronic acid 1 mmol/L, 37° C., 7 days): 66% | Hb concentration [6]: 148 µg/L | Recovery ratio with respect to Hb concentration after 0 days [6]: 54% | Hb concentration [7]: 125 µg/L | Recovery ratio with respect to Hb concentration after 0 days [7]: 45% | Hb concentration [8]: 302 µg/L | Recovery ratio with respect to Hb concentration after 0 days [8]: 100% | Hb concentration [9]: 243 µg/L | Recovery ratio with respect to Hb concentration after 0 days [9]: 80% | Hb concentration [10]: 239 µg/L | Recovery ratio with respect to Hb concentration after 0 days [10]: 79% | Hb concentration [11]: 224 µg/L | Recovery ratio with respect to Hb concentration after 0 days [11]: 74% | Hb concentration [12]: 290 µg/L | Recovery ratio with respect to Hb concentration after 0 days [12]: 100% | Hb concentration [13]: 230 µg/L | Recovery ratio with respect to Hb concentration after 0 days [13]: 79% | Hb concentration [14]: 204 µg/L | Recovery ratio with respect to Hb concentration after 0 days [14]: 70% | Hb concentration [15]: 185 µg/L | Recovery ratio with respect to Hb concentration after 0 days [15]: 64% | Hb concentration [16]: 271 µg/L | Recovery ratio with respect to Hb concentration after 0 days [16]: 100% | Hb concentration [17]: 186 µg/L | Recovery ratio with respect to Hb concentration after 0 days [17]: 69% | Hb concentration [18]: 137 µg/L | Recovery ratio with respect to Hb concentration after 0 days [18]: 51% | Hb concentration [19]: 97 µg/L | Recovery ratio with respect to Hb concentration after 0 days [19]: 36% | Hb concentration [20]: 271 µg/L | Recovery ratio with respect to Hb concentration after 0 days [20]: 100% | Hb concentration [21]: 147 µg/L | Recovery ratio with respect to Hb concentration after 0 days [21]: 54% | Hb concentration [22]: 113 µg/L | Recovery ratio with respect to Hb concentration after 0 days [22]: 42% | Hb concentration [23]: 91 µg/L | Recovery ratio with respect to Hb concentration after 0 days [23]: 34% | Recovery ratio with respect to Hb concentration after 0 days (Feces 2, phenylboronic acid 1 mmol/L, 37° C., 0 days): 100% | Hb concentration [24]: 166 µg/L | Recovery ratio with respect to Hb concentration after 0 days [24]: 58% | Hb concentration [25]: 136 µg/L | Recovery ratio with respect to Hb concentration after 0 days [25]: 48% | Hb concentration [26]: 116 µg/L | Recovery ratio with respect to Hb concentration after 0 days [26]: 41% | Hb concentration [27]: 283 µg/L | Recovery ratio with respect to Hb concentration after 0 days [27]: 100% | Hb concentration [28]: 249 µg/L | Recovery ratio with respect to Hb concentration after 0 days [28]: 88% | Hb concentration [29]: 214 µg/L | Recovery ratio with respect to Hb concentration after 0 days [29]: 76% | Hb concentration [30]: 191 µg/L | Recovery ratio with respect to Hb concentration after 0 days [30]: 67% | Hb concentration [31]: 283 µg/L | Recovery ratio with respect to Hb concentration after 0 days [31]: 100% | Hb concentration [32]: 249 µg/L | Recovery ratio with respect to Hb concentration after 0 days [32]: 88% | Hb concentration [33]: 214 µg/L | Recovery ratio with respect to Hb concentration after 0 days [33]: 76% | Hb concentration [34]: 191 µg/L | Recovery ratio with respect to Hb concentration after 0 days [34]: 67% | Hb concentration [35]: 269 µg/L | Recovery ratio with respect to Hb concentration after 0 days [35]: 100% | Hb concentration [36]: 214 µg/L | Recovery ratio with respect to Hb concentration after 0 days [36]: 80% | Recovery ratio with respect to Hb concentration after 0 days (Feces 2, phenylboronic acid 50 mmol/L, 37° C., 14 days): 65% | Hb concentration [37]: 149 µg/L | Recovery ratio with respect to Hb concentration after 0 days [37]: 55% | Hb concentration [38]: 250 µg/L | Recovery ratio with respect to Hb concentration after 0 days [38]: 100% | Hb concentration [39]: 139 µg/L | Recovery ratio with respect to Hb concentration after 0 days [39]: 56% | Hb concentration [40]: 80 µg/L | Recovery ratio with respect to Hb concentration after 0 days [40]: 32% | Hb concentration [41]: 36 µg/L | Recovery ratio with respect to Hb concentration after 0 days [41]: 14% | Hb concentration (Feces 3, phenylboronic acid 0.5 mmol/L, 37° C., 0 days): 283 µg/L
